Laboratory results published in ChEMBL document CHEMBL3885861, “Open TG-GATES”.

Species: Rattus norvegicus
Assay: Open TG-GATES - Regimen: Daily Repeat
Format: toxicity, organism-based, Sprague-Dawley
Parameters: regimen Daily Repeat, gender Male, age 6 weeks
Conditions: in vivo, po, 15 mg/kg, route gavage, dose level High; for APTT / Bas / Eos / Fbg / Hb / Ht / Lym / MCH / MCHC / MCV / Mono / Neu / PT / Plat / RBC / Ret / WBC: tissue Blood; for KIDNEY_L / KIDNEY_R / KIDNEY_TOTAL: tissue Kidney; for LIVER: tissue Liver; for ALP / ALT / AST / BUN / CRE / Ca / Cl / DBIL / GLC / IP / K / LDH / Na / PL / RALB / TBIL / TC / TG / TP / gamma-GTP: tissue Plasma

## O=P1(N(CCCl)CCCl)NCCCO1 (stereo not drawn) [CYCLOPHOSPHAMIDE ANHYDROUS]
72 h, time 3 day
  TERMINAL_BW: 216.4 g
  APTT: 19.7 s
  Bas: 0%
  Eos: 1%
  Fbg: 279.6 mg/dL
  Hb: 12.9 g/dL
  Ht: 38.7%
  Lym: 73.8%
  MCH: 21.8 pg
  MCHC: 33.3%
  MCV: 65.5 fL
  Mono: 1.4%
  Neu: 23.8%
  PT: 16.8 s
  Plat: 121.4 x10_4/uL
  RBC: 590.2 x10_4/ul
  Ret: 1.6%
  WBC: 25.1 x10_2/uL
  KIDNEY_L: 1 g
  KIDNEY_R: 1 g
  KIDNEY_TOTAL: 1.9 g
  LIVER: 10.1 g
  ALP: 1493.4 IU/L
  ALT: 36.8 IU/L
  AST: 65.2 IU/L
  BUN: 16.4 mg/dL
  CRE: 0.2 mg/dL
  Ca: 10.6 mg/dL
  Cl: 106.4 meq/L
  DBIL: 0 mg/dL
  GLC: 187.6 mg/dL
  IP: 7.8 mg/dL
  K: 3.9 meq/L
  LDH: 169.2 IU/L
  Na: 142.6 meq/L
  PL: 148.2 mg/dL
  RALB: 2.9 g/dL
  TBIL: 0.008 mg/dL
  TC: 78.8 mg/dL
  TG: 95 mg/dL
  TP: 5.5 g/dL
  gamma-GTP: 1 IU/L
[…], time 7 day
  TERMINAL_BW: 231.7 g
  APTT: 22.1 s
  Bas: 0%
  Eos: 1%
  Fbg: 277.2 mg/dL
  Hb: 13.1 g/dL
  Ht: 38.8%
  Lym: 77%
  MCH: 21 pg
  MCHC: 33.6%
  MCV: 62.5 fL
  Mono: 1.2%
  Neu: 20.4%
  PT: 15.2 s
  Plat: 81.8 x10_4/uL
  RBC: 622 x10_4/ul
  Ret: 2.8%
  WBC: 12.8 x10_2/uL
  KIDNEY_L: 0.9 g
  KIDNEY_R: 1 g
  KIDNEY_TOTAL: 1.9 g
  LIVER: 10.9 g
  ALP: 1013 IU/L
  ALT: 32.2 IU/L
  AST: 59 IU/L
  BUN: 16.6 mg/dL
  CRE: 0.2 mg/dL
  Ca: 10.8 mg/dL
  Cl: 106.8 meq/L
  DBIL: 0 mg/dL
  GLC: 178.8 mg/dL
  IP: 6.5 mg/dL
  K: 4.1 meq/L
  LDH: 200 IU/L
  Na: 143 meq/L
  PL: 144.8 mg/dL
  RALB: 2.8 g/dL
  TBIL: 0.018 mg/dL
  TC: 71.2 mg/dL
  TG: 139.6 mg/dL
  TP: 5.4 g/dL
  gamma-GTP: 1 IU/L
[…], time 14 day
  TERMINAL_BW: 252.5 g
  APTT: 21 s
  Bas: 0%
  Eos: 0.8%
  Fbg: 278.4 mg/dL
  Hb: 12.8 g/dL
  Ht: 37.3%
  Lym: 63%
  MCH: 21.1 pg
  MCHC: 34.2%
  MCV: 61.8 fL
  Mono: 3%
  Neu: 32.2%
  PT: 14.1 s
  Plat: 107 x10_4/uL
  RBC: 604.8 x10_4/ul
  Ret: 2.3%
  WBC: 4.7 x10_2/uL
  KIDNEY_L: 1 g
  KIDNEY_R: 1 g
  KIDNEY_TOTAL: 2.1 g
  LIVER: 11.4 g
  ALP: 573.6 IU/L
  ALT: 19.8 IU/L
  AST: 40.8 IU/L
  BUN: 18.6 mg/dL
  CRE: 0.2 mg/dL
  Ca: 10.4 mg/dL
  Cl: 109.8 meq/L
  DBIL: 0.002 mg/dL
  GLC: 175.6 mg/dL
  IP: 6.2 mg/dL
  K: 4.2 meq/L
  LDH: 136 IU/L
  Na: 143.4 meq/L
  PL: 146 mg/dL
  RALB: 2.8 g/dL
  TBIL: 0.016 mg/dL
  TC: 73.6 mg/dL
  TG: 142.4 mg/dL
  TP: 5.4 g/dL
  gamma-GTP: 1.2 IU/L
[…], time 28 day
  TERMINAL_BW: 239.3 g
  APTT: 20.4 s
  Bas: 0%
  Eos: 2%
  Fbg: 277.6 mg/dL
  Hb: 9.3 g/dL
  Ht: 27.9%
  Lym: 20.8%
  MCH: 20.7 pg
  MCHC: 33.5%
  MCV: 62 fL
  Mono: 3.8%
  Neu: 69.2%
  PT: 17.7 s
  Plat: 79.2 x10_4/uL
  RBC: 448 x10_4/ul
  Ret: 8.3%
  WBC: 17.2 x10_2/uL
  KIDNEY_L: 1.1 g
  KIDNEY_R: 1.1 g
  KIDNEY_TOTAL: 2.1 g
  LIVER: 9.6 g
  ALP: 471.2 IU/L
  ALT: 35.8 IU/L
  AST: 104.8 IU/L
  BUN: 30 mg/dL
  CRE: 0.2 mg/dL
  Ca: 9.7 mg/dL
  Cl: 114.2 meq/L
  DBIL: 0.05 mg/dL
  GLC: 165.6 mg/dL
  IP: 7.3 mg/dL
  K: 3.9 meq/L
  LDH: 516.4 IU/L
  Na: 145.8 meq/L
  PL: 122 mg/dL
  RALB: 2.6 g/dL
  TBIL: 0.1 mg/dL
  TC: 69.6 mg/dL
  TG: 74.4 mg/dL
  TP: 5.1 g/dL
  gamma-GTP: 1.6 IU/L
